pIC50: −log10 of the molar value. Like-named read-outs stand apart in the source and are kept apart here.
Tests used:
α‐Amylase = conditions: cited from earlier work
α‐Glucosidase = conditions: cited from earlier work
[1] = biological target: T1, Lipase from human porcine pancreas (Sus scrofa, UniProt P00591); assay: Lipase inhibition (pNP laurate substrate); assay type: biochemical; conditions: comparison among the anthocyanins / proanthocyanidin fractions
T1 construct: purchased Sigma‐Aldrich, Inc (Shanghai, China)
T1 sequence (P00591 1-450): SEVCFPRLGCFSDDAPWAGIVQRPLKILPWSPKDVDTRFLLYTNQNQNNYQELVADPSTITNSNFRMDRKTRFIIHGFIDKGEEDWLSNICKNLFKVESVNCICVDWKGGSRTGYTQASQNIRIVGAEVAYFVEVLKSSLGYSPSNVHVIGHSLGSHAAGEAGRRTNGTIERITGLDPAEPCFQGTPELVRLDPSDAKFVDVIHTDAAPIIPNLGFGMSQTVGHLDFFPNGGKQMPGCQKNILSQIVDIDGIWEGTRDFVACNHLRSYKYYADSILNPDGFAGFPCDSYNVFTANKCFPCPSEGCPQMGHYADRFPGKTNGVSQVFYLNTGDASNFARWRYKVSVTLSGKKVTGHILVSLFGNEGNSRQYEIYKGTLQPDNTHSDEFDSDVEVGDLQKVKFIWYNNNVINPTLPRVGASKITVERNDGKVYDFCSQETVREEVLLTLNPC
Description: (§1) All the chemicals used for analyses were of analytical grade and high‐performance liquid chromatography (HPLC) chemicals were of HPLC purity and were all purchased from Sinopharm Chemical Reagent Co., Ltd (Shanghai, China). Lipase from […] porcine pancreas (EC 3.1.1.3), α‐amylase from human pancreas (EC 3.2.1.1), and α‐glucosidase from Bacillus stearothermophilus (EC 3.2.1.20) were obtained from Sigma‐Aldrich, Inc (Shanghai, China). Standards of cyanidin 3‐galactoside, cyanidin 3‐arabinoside, cyanidin 3‐xyloside, cyanidin 3‐glucoside, catechin, and epicatechin were obtained from Sigma‐Aldrich, Inc. (Shanghai, China). Amberlite XAD7HP, Sephadex LH‐20, and ENVI 18 DSK SPE were obtained from Sigma‐Aldrich, Inc (Shanghai, China).
The lipase inhibitory activity was determined according to the method described by Tan et al. ([2017]) with modifications (Table 3). Three hundred and fifty μL phosphate buffer (0.05 M, pH 7.6), 150 μL of porcine lipase enzyme solution (50 mg/mL), and 50 μL of fractionated compounds were added in a centrifuge tube (1.5 mL size) and incubated at 37°C for exactly 10 min. Then, 450 μL pNP laurate substrate was added to the reaction mixture and blended, followed by incubation at 37°C for 120 min without light. The reaction mixture was centrifuged for 10 min at 8000 g and the supernatant of 200 μL was taken into a 96‐well plate to determine the absorbance at 405 nm. The percentage inhibition was calculated using Equation 4. Lipase inhibitory activity was measured at five different concentrations, and a logarithmic regression curve was established to calculate IC50 values (Tan et al., [2017]). (4) Lipase inhibitory activity%=1−As−Ab/At−Ac×100%

Lipase = conditions: cited from earlier work
[2] = biological target: T2, α‐amylase from human pancreas (Homo sapiens, UniProt P04746); assay: α‐Amylase inhibition (DNS method, soluble starch); assay type: biochemical; conditions: comparison among the anthocyanins / proanthocyanidin fractions
T2 construct: purchased Sigma‐Aldrich, Inc (Shanghai, China)
T2 sequence (P04746 16-511): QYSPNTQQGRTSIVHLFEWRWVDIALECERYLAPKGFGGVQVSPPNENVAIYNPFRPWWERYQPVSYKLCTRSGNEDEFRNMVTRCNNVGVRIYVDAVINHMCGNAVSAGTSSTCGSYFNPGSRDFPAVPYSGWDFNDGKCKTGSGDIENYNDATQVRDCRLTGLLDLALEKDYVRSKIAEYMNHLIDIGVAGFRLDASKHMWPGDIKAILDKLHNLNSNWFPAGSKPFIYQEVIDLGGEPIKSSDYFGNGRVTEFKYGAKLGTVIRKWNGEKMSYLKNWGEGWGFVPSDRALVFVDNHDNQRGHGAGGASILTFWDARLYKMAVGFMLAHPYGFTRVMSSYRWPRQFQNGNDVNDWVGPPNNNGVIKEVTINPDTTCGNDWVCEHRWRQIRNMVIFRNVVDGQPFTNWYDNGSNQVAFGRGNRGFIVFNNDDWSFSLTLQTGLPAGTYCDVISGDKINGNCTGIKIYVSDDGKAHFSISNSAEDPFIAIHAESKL
Description: as §1, with “Amberlite XAD7HP, Sephadex LH‐20, and ENVI 18 DSK SPE were obtained from Sigma‐Aldrich, Inc (Shanghai, China).” left out
α‐Amylase inhibitory activity was determined using the method from Tan et al. ([2017]), with a slight modification as Table 1 indicates. […] Then, 200 μL of the mixture was taken and added to a 96‐well plate and the absorption at 540 nm was determined. To eliminate the background absorbance produced by the fractionated compounds, an appropriate extract control without enzyme was included. α‐Amylase inhibitory activity was measured at five different concentrations, and a logarithmic regression curve was established to calculate IC50 values (mg/mL) (Tan et al., [2017]). The α‐amylase inhibitory activity was expressed as function 2 and the As, Ab, At, and Ac indicated the absorbance in different solutions as shown in Table 1. […]

[3] = nf, not found, ref Worsztynowicz et al., 2014
[4] = ref Akkarachiyasit et al., 2010

Row | SMILES | IC50 values α‐Amylase (α‐Amylase; [3]) | IC50 values α‐Glucosidase (α‐Glucosidase; ref Bräunlich et al., 2013) | inhibition effect on lipase (in words) [1] | IC50 values Lipase (Lipase; [3]) | pIC50 (α‐Amylase; [4]) | IC50 values α‐Glucosidase (α‐Glucosidase; for sucrose, ref Adisakwattana et al., 2009) [µg/mL] | inhibition effect on α‐amylase (in words) [2] | IC50 values α‐Amylase (α‐Amylase; [4]) [mg/mL] | IC50 values α‐Glucosidase (α‐Glucosidase; for sucrose, ref Akkarachiyasit et al., 2010) [µg/mL] | IC50 values Lipase (Lipase; ref Vijayaraj et al., 2019) [µg/mL]
1 | Oc1cc(O)c2cc(OC3OCC(O)C(O)C3O)c(-c3ccc(O)c(O)c3)[o+]c2c1 (centres unmarked) [Cyanidin 3‐arabinoside, cyanidin 3‐arabinoside] | 3.98 ± 0.10 mg/mL (Worsztynowicz et al., [2014]) | 0.37 ± 0.08 μg/mL (Bräunlich et al., [2013]) | no inhibition effects | nf (Worsztynowicz et al., [2014]) | – | – | – | – | – | –
2 | OCC1OC(Oc2cc3c(O)cc(O)cc3[o+]c2-c2ccc(O)c(O)c2)C(O)C(O)C1O (centres unmarked) [Cyanidin 3‐galactoside, cyanidin 3‐galactoside] | 5.16 ± 0.06 mg/mL | 1.54 ± 0.1 µg/mL | no inhibition effects | nf (Worsztynowicz et al., [2014]) | < 3.00 | 224.5 ± 22.45 | – | – | – | –
3 | OCC1OC(Oc2cc3c(O)cc(O)cc3[o+]c2-c2ccc(O)c(O)c2)C(O)C(O)C1O (centres unmarked) [Cyanidin 3‐glucoside, cyanidin 3‐glucoside] | 1.74 ± 0.04 mg/mL | 0.87 ± 0.2 µg/mL | strongest inhibition effects | 1170 ± 40 µg/mL | – | – | strongest inhibition effects | 0.1347 ± 0.00449 | 435.53 ± 22.45 | 84.54 ± 2.94
4 | Oc1cc(O)c2cc(OC3OCC(O)C(O)C3O)c(-c3ccc(O)c(O)c3)[o+]c2c1 (centres unmarked) [Cyanidin 3‐xyloside, cyanidin 3‐xyloside] | nf (Worsztynowicz et al., [2014]) | 5.5 ± 1.6 μg/mL (Bräunlich et al., [2013]) | no inhibition effects | nf (Worsztynowicz et al., [2014]) | – | – | no effect | – | – | –

— paper PMC10345685, “Anthocyanin and proanthocyanidin from Aronia melanocarpa (Michx.) Ell.: Purification, fractionation, and enzyme inhibition” (Food Science & Nutrition, 2023)
